In the supplement of paper PMC10307832:

Tests used:
Assay in all cases: relative viability (nuclei count vs DMSO), 5 days (fraction); higher = more cells survive
[1] = compound: CCc1c2c(nc3ccc(OC(=O)N4CCC(N5CCCCC5)CC4)cc13)-c1cc3c(c(=O)n1C2)COC(=O)[C@]3(O)CC [Irinotecan] + O=C(c1cc(Cc2n[nH]c(=O)c3ccccc23)ccc1F)N1CCN(C(=O)C2CC2)CC1 [Olaparib] (partner 8 µM)
In short: (§1)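 Relative viability equals treated-well nuclei counts divided by vehicle-well nuclei counts. Counts came from 4× images of lung cancer cell lines grown in 1536-well plates for 5 days after pin-tool dosing on the day after seeding. Dosing used one drug alone or a fixed anchor-drug dose plus five library-drug doses (not always all listed) in √10 steps, and values are medians of duplicate plates.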

[2] = compound: Cn1cc(-c2cnc3ccc4ccc(CS(=O)(=O)NCc5ccccn5)cc4c(=O)c3c2)cn1 [MK-8033] + C[C@@H](Oc1cc(-c2cnn(C3CCNCC3)c2)cnc1N)c1c(Cl)ccc(F)c1Cl [Crizotinib] (partner 1 µM)
In short: as §1

[3] = compound: CC[C@@H](C)CNCC(=O)N1CCC2=C([C@@H]1COC3=CC=CC(=C3)C)C=CS2 [RU-SKI 43] + CS(=O)(=O)N1CCN(Cc2cc3nc(-c4cccc5[nH]ncc45)nc(N4CCOCC4)c3s2)CC1 [Pictilisib] (partner 1 µM)
In short: as §1

[4] = compound: CCc1c2c(nc3ccc(OC(=O)N4CCC(N5CCCCC5)CC4)cc13)-c1cc3c(c(=O)n1C2)COC(=O)[C@]3(O)CC [Irinotecan] + N=C(N)NC(=N)NCCc1ccccc1 [Phenformin] (partner 250 µM)
In short: as §1

Cell Line	relative viability ([1]; first compound 2 µM)	relative viability ([1]; first compound 6.325 µM)	relative viability ([1]; first compound 20 µM)	relative viability ([2]; first compound 0.02 µM)	relative viability ([2]; first compound 0.06325 µM)	relative viability ([2]; first compound 0.2 µM)	relative viability ([2]; first compound 0.6325 µM)	relative viability ([2]; first compound 2 µM)	relative viability ([3]; first compound 0.1 µM)	relative viability ([3]; first compound 0.3162 µM)	relative viability ([3]; first compound 1 µM)	relative viability ([3]; first compound 3.162 µM)	relative viability ([3]; first compound 10 µM)	relative viability ([4]; first compound 2 µM)	relative viability ([4]; first compound 6.325 µM)	relative viability ([4]; first compound 20 µM)	relative viability ([1]; first compound 0.6325 µM)	relative viability ([4]; first compound 0.6325 µM)
NCI-H1355	0.321	0.278	0.209	1.07	0.988	1.03	1.05	1.02	0.432	0.331	0.508	0.465	0.442	0.46	0.278	0.248	–	–
NCI-H1437	0.429	0.316	0.272	1.04	0.723	0.545	0.877	0.918	0.438	0.529	0.432	0.465	0.446	0.306	0.163	0.144	0.434	0.296
NCI-H1650	0.436	0.296	0.139	0.997	0.867	0.996	0.919	0.832	0.561	0.579	0.616	0.739	0.382	0.418	0.34	0.196	0.722	–
NCI-H1651	0.142	0.107	0.117	0.852	0.832	0.846	0.938	0.862	0.606	0.783	0.76	0.621	0.728	0.34	0.242	0.14	0.164	0.259
NCI-H1666	0.726	0.654	0.671	0.909	0.942	0.982	0.999	1.01	0.407	0.481	0.377	0.331	0.2	0.529	0.425	0.424	0.672	0.511
NCI-H1734	0.184	0.143	0.179	0.682	0.547	0.645	0.508	0.595	0.467	0.585	0.459	0.454	0.431	0.357	0.244	0.17	–	–
NCI-H1755	0.358	0.372	0.42	0.811	0.782	0.878	0.847	0.803	0.384	0.524	0.532	0.48	0.367	0.603	0.296	0.307	0.482	0.498
NCI-H1792	0.327	0.198	0.298	1.02	0.959	0.982	0.828	1.03	0.284	0.351	0.277	0.281	0.304	0.424	0.314	0.28	0.332	0.273
NCI-H1915	0.186	0.144	0.115	0.935	0.896	0.802	0.885	0.911	1.02	0.954	1.03	0.961	0.927	0.27	0.2	0.195	0.151	0.268
NCI-H1944	0.221	0.198	0.182	1.12	–	1.02	1.06	1.11	0.336	0.317	0.372	0.353	0.351	0.187	0.132	0.132	0.287	0.191
NCI-H1975	0.935	0.323	0.193	0.896	0.924	0.934	1.06	0.952	0.293	0.289	0.294	0.273	0.254	0.448	0.296	0.194	0.797	0.407
NCI-H1993	0.601	0.552	0.585	0.734	0.658	0.836	0.668	0.819	0.718	0.597	0.769	0.964	0.719	0.503	0.531	0.551	–	0.536
NCI-H2009	0.287	0.194	0.128	1.08	1.07	0.579	1.11	1.03	0.788	1.06	0.9	0.883	0.773	0.411	0.232	0.167	0.508	0.421
NCI-H2023	0.225	0.14	0.073	0.674	0.559	0.554	0.554	0.586	0.269	0.213	0.236	0.264	0.212	0.391	0.178	0.0825	0.302	0.415
NCI-H2085	0.433	0.423	0.408	0.873	0.804	0.867	0.801	0.977	0.476	0.353	0.473	0.409	0.469	0.702	0.559	0.478	0.583	0.662
NCI-H2087	0.196	0.154	0.173	0.957	0.746	0.883	0.989	0.836	0.797	0.992	1.16	0.992	0.944	0.341	0.192	0.176	0.175	0.218
NCI-H2126	0.387	0.303	0.27	1.04	0.927	0.973	0.976	0.951	0.491	0.407	0.549	0.492	0.507	0.53	0.355	0.285	0.388	–
NCI-H2170	0.184	0.121	0.102	1.08	1.18	1.05	1.18	1.18	0.293	0.256	0.334	0.282	0.278	0.424	0.202	0.174	0.173	0.389
